What all share (assay type): functional, cell-based
One test relates to MDA-MB-231. As to the kind of experiment: Antiproliferative activity against human MDA-MB-231 cells after 3 days by SRB assay. The conditions noted are these: MDA-MB-231, 72 h. A general note: Sulforhodamine B stains cellular protein and so reports cell mass.
The nature of test [1]: Antiproliferative activity against human KBVIN cells after 3 days by SRB assay. The note with it: 72 h.
For the next test, the system named is KB. As to the kind of experiment: Antiproliferative activity against human KB cells after 3 days by SRB assay. The conditions noted are these: 72 h.
Another test has as its system A549. As to the kind of experiment: Antiproliferative activity against human A549 cells after 3 days by SRB assay. The note with it: A549, 72 h.
The next test deals with MCF7. As to the kind of experiment: Antiproliferative activity against human MCF7 cells after 3 days by SRB assay. The conditions noted are these: MCF7, 72 h.

The record followed here is ChEMBL document CHEMBL3763014, “Alkaloids from Oxytropis ochrocephala and antiproliferative activity of sophoridine derivatives against cancer cell lines” (Bioorg Med Chem Lett, 2016).

Consider `O=c1cccc2n1C[C@@H]1CCCN3CCC[C@H]2[C@H]13`, for which the IC50 (with MDA-MB-231; in test [1]; with KB; with A549) was above 40 µM in each case.
`O=C1CCC[C@@H]2[C@@H]3C[C@@H](CN12)[C@@H]1CCCCN1C3`: the 50% inhibitory concentration (IC50) (in the test with MDA-MB-231; in test [1]; with KB; in the test with A549) was above 40 µM throughout.
With `COc1ccc(/C=C2\CC[C@@H]3[C@H]4CCCN5CCC[C@H](CN3C2=O)[C@@H]45)c(C)c1`, the half-inhibitory concentration (IC50) in the test with MCF7 is above 80 µM; in the test on MDA-MB-231, 67 µM; in test [1], above 80 µM; with KB, 74 µM; in the test on A549, 74 µM.
Turning to `COc1cccc(OC)c1/C=C1\CC[C@@H]2[C@H]3CCCN4CCC[C@H](CN2C1=O)[C@@H]34`, the concentration for half-maximal inhibition (IC50) (in the test with MDA-MB-231; in test [1]; in the test on KB; with A549) was above 40 µM each time.
Regarding `O[C@@H]1[C@H]2[C@H](O)CCCN2C[C@@H]1O`, the IC50 (in the test on MDA-MB-231; in test [1]; in the test on KB; in the test with A549) was above 40 µM throughout.
On to `COc1cccc(/C=C2\CC[C@@H]3[C@H]4CCCN5CCC[C@H](CN3C2=O)[C@@H]45)c1OC`, for which the concentration for half-maximal inhibition (IC50) was above 80 µM with MCF7; 68 µM with MDA-MB-231; above 80 µM in test [1]; 71 µM in the test with KB; above 80 µM in the test on A549.
As for `O=C1CCC[C@@H]2[C@H]3CCCN4CCC[C@H](CN12)[C@H]34`, the IC50 (in the test on MDA-MB-231; in test [1]; in the test with KB; in the test on A549) was above 40 µM each time.
Consider `O=C1/C(=C/c2ccc3c(c2)OCO3)CC[C@@H]2[C@H]3CCCN4CCC[C@H](CN12)[C@@H]34`, for which the IC50 (in the test with MDA-MB-231; in test [1]; in the test with KB; in the test with A549) was above 40 µM in each case.
Regarding `CCOc1cc(/C=C2\CC[C@@H]3[C@H]4CCCN5CCC[C@H](CN3C2=O)[C@@H]45)ccc1OCOC`, the 50% inhibitory concentration (IC50) (in the test on MDA-MB-231; in test [1]; with KB; with A549) was above 40 µM each time.
With `CCOc1cc(/C=C2\CC[C@@H]3[C@H]4CCCN5CCC[C@H](CN3C2=O)[C@@H]45)ccc1OCc1ccccc1`, the half-inhibitory concentration (IC50) was 20.5 µM in the test on MCF7; 21.9 µM in the test with MDA-MB-231; 21.6 µM in test [1]; 20.7 µM in the test with KB; 17.6 µM in the test on A549.
For `COc1cc(/C=C2\CC[C@@H]3[C@H]4CCCN5CCC[C@H](CN3C2=O)[C@@H]45)ccc1C` the same measures were 54 µM, 45 µM, 72 µM, 58 µM and 42 µM.
Consider `CN(C)c1ccc(/C=C2\CC[C@@H]3[C@H]4CCCN5CCC[C@H](CN3C2=O)[C@@H]45)cc1`, for which the IC50 (in the test with MDA-MB-231; in test [1]; in the test with KB; in the test on A549) was above 40 µM in each case.
For the compound `O=C1CCCC2=C3CCCN4CCC[C@@H](CN12)[C@@H]34`, the concentration for half-maximal inhibition (IC50) (in the test with MDA-MB-231; in test [1]; in the test on KB; in the test on A549) was above 40 µM throughout.
As for `O=C1CCC[C@@H]2[C@H]3CCCN4CCC[C@@H](CN12)[C@@H]34` [MATRINE], the IC50 (with MDA-MB-231; in test [1]; with KB; in the test with A549) was above 40 µM throughout.
As for `CC(=O)O[C@H]1C(=O)[C@@]2(C)[C@H]([C@H](OC(=O)c3ccccc3)[C@]3(O)C[C@H](OC(=O)[C@H](O)[C@@H](NC(=O)c4ccccc4)c4ccccc4)C(C)=C1C3(C)C)[C@]1(OC(C)=O)CO[C@@H]1C[C@@H]2O` [PACLITAXEL], the 50% inhibitory concentration (IC50) amounted to 0.018 µM with MDA-MB-231, 2.6 µM in test [1], 4e-05 µM with KB and 3e-05 µM in the test on A549.
`O=C1C=CC[C@@H]2[C@H]3CCCN4CCC[C@@H](CN12)[C@@H]34` [SOPHOCARPINE]: the IC50 (in the test on MDA-MB-231; in test [1]; with KB; with A549) was above 40 µM in each case.
`O=C1CCC[C@@H]2[C@H]3CCCN4CCC[C@H](CN12)[C@@H]34` [SOPHORIDINE]: the half-maximal inhibitory concentration (IC50) (in the test with MCF7; with MDA-MB-231; in test [1]; with KB; in the test with A549) was above 80 µM each time.

By IC50 is commonly meant the concentration that inhibits the measured activity by half.
